Measurements published in patent publication US9902766B2, “Antibodies to endoplasmin and their use” (University of Pittsburgh—Of The Commonwealth System of …, priority 2010, dated 2018).
Where two headings read alike, the source gives them in different places.

System: MIAPaCa-2 cancer initiating cells (ALDHbright cells)
Experiment: cancer initiating cell in vitro proliferation, ALDEFLUOR flow cytometry
Type: cell-based
Settings: Homo sapiens, read-out: growth inhibition of ALDHbright cells
Description: FIG. 19. […] Human pancreatic adenocarcinoma MIAPaCa-2 cells were incubated with mAb W9 (25 μg/ml), for 48 hrs at 37° C. Cells were then harvested and stained with ALDEFLUOR® (TEST). Cells stained with ALDEFLUOR®+DAEB were used as a reference (CONTROL). Human Ig (HIg) were used as a control.
FIG. 26. […] Human pancreatic adenocarcinoma MIAPaCa-2 cells were incubated with mAb W9 (25 μg/ml), cyclopamine (20 μM), and 5-FU (10 μM) for 48 hrs at 37° C. Cells were then stained with ALDEFLUOR with or without the DEAB inhibitor to identify ALDH^bright cells. The anti-HLA class I mAb TP25.99 was used as a control.
FIGS. 28A and 28B. […] Human pancreatic adenocarcinoma MIAPaCa-2 cells (4×10^5/ml) were irradiated at the dose of 20Gy (panel A.) and incubated with mAb W9 (10 μg/ml) and cyclopamine (20 μM) for 72 hrs at 37° C. Cells were then stained with ALDEFLUOR with or without the DEAB inhibitor to identify ALDH^bright cells. Non-irradiated cell were used as a control (panel B.).

With CC1=C2C[C@H]3[C@@H](CC=C4C[C@@H](O)CC[C@@]43C)[C@@H]2CC[C@]12O[C@@H]1C[C@H](C)CN[C@H]1[C@H]2C [cyclopamine, reference compound] the inhibition at 20 µM (MIA PaCa-2, 48 h) was 50% and the inhibition at 20 µM (MIA PaCa-2, 72 h) was about 50%.

O=c1[nH]cc(F)c(=O)[nH]1 [5-FU, 5-fluorouracil, reference compound] showed an inhibition at 10 µM (MIA PaCa-2, MIAPaCa-2, mAb W9 25 μg/ml, cyclopamine 20 μM, 5-FU 10 μM, 48 hrs) of 20%.
